# Key:
# [1] = target: Sodium-dependent noradrenaline transporter (Homo sapiens, UniProt P23975); test: Displacement of [3H]-Nisoxetine from human NET expressed in HEK293 cell membranes after 90 mins by scintillation counting method
# [2] = target: 5-hydroxytryptamine receptor 1A (Homo sapiens, UniProt P08908); test: Displacement of [3H]-Way100635 from human 5-HT1A receptor expressed in CHO cell membranes after 90 mins by scintillation counting method
# [3] = target: 5-hydroxytryptamine receptor 2A (Homo sapiens, UniProt P28223); test: Displacement of [3H]-Ketanserin from human 5-HT2A receptor expressed in HEK293T cell membranes after 90 mins by scintillation counting method
# [4] = target: Alpha-1A adrenergic receptor (Homo sapiens, UniProt P35348); test: Displacement of [3H]-Prazosin from human adrenergic alpha1A receptor after 90 mins by scintillation counting method
# [5] = target: Alpha-1B adrenergic receptor (Homo sapiens, UniProt P35368); test: Displacement of [3H]-Prazosin from human adrenergic alpha1B receptor after 90 mins by scintillation counting method
# Alpha-1B adrenergic receptor, sequence (P35368 whole entry): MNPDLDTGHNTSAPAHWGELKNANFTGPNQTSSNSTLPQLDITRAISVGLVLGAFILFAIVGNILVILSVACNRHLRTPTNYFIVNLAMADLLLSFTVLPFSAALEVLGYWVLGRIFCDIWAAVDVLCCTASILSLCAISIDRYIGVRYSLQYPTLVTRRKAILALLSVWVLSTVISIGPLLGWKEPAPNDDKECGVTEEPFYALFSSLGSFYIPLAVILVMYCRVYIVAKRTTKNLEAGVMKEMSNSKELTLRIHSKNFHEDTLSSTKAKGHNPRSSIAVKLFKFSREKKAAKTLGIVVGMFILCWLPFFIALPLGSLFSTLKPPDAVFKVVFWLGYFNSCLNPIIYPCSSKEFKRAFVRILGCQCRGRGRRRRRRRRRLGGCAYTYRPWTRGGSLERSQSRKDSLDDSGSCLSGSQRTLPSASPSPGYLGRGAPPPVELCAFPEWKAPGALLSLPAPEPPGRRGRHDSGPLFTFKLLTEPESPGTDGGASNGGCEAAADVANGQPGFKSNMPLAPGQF
# [6] = target: Alpha-1D adrenergic receptor (Homo sapiens, UniProt P25100); test: Displacement of [3H]-Prazosin from human adrenergic alpha1D receptor after 90 mins by scintillation counting method
# [7] = target: Alpha-2A adrenergic receptor (Homo sapiens, UniProt P08913); test: Displacement of [3H]Rauwolscine from human adrenergic alpha2A receptor expressed in MDCK cell membranes after 90 mins by scintillation counting method
# Alpha-2A adrenergic receptor, sequence (P08913 whole entry): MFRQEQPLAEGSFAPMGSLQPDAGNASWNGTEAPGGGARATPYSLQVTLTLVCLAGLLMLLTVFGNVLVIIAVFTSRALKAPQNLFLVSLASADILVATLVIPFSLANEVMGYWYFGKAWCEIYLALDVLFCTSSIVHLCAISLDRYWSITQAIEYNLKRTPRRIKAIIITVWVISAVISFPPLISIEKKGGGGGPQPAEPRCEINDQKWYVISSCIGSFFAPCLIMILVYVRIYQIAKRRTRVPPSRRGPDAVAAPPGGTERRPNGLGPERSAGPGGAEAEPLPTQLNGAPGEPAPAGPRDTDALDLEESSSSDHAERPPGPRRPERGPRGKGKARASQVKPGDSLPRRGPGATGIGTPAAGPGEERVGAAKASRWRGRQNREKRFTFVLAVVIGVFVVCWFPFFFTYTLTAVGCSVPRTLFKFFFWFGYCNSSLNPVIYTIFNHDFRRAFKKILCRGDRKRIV
# [8] = target: Alpha-2B adrenergic receptor (Homo sapiens, UniProt P18089); test: Displacement of [3H]Rauwolscine from human adrenergic alpha2B receptor expressed in HEK293T cell membranes after 90 mins by scintillation counting method
# Alpha-2B adrenergic receptor, sequence (P18089 whole entry): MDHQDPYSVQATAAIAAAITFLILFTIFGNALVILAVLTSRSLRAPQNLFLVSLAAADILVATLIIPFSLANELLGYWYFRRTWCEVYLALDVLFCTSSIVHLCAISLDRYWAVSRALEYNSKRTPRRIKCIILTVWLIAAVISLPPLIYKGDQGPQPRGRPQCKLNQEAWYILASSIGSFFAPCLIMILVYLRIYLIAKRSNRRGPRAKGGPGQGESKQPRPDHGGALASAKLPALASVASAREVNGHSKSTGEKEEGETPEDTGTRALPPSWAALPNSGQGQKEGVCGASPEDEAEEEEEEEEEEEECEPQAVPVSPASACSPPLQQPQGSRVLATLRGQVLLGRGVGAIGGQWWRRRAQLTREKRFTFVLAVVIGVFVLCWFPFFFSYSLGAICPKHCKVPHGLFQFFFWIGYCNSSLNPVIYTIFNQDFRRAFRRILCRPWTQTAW
# D(1A) dopamine receptor = D(1A) dopamine receptor (Homo sapiens, UniProt P21728); test: Displacement of [3H]SCH23390 from human dopamine D1 receptor expressed in HEK293T cell membranes after 90 mins by scintillation counting method
# D(2) dopamine receptor = D(2) dopamine receptor (Homo sapiens, UniProt P14416); test: Displacement of [3H]N-methylspiperone from human dopamine D2 receptor expressed in HEK293T cell membranes after 90 mins by scintillation counting method
# D(3) dopamine receptor = D(3) dopamine receptor (Homo sapiens, UniProt P35462); test: Displacement of [3H]N-methylspiperone from human dopamine D3 receptor expressed in HEK293T cell membranes after 90 mins by scintillation counting method
# D(1B) dopamine receptor = D(1B) dopamine receptor (Homo sapiens, UniProt P21918); test: Displacement of [3H]SCH23390 from human dopamine D5 receptor expressed in HEK293T cell membranes after 90 mins by scintillation counting method
# Histamine H2 receptor = Histamine H2 receptor (Homo sapiens, UniProt P25021); test: Displacement of [125I]-Iodoaminopotentidine from human histamine H2 receptor expressed in HEK293T cell membranes after 90 mins by scintillation counting method
# Histamine H2 receptor, sequence (P25021 whole entry): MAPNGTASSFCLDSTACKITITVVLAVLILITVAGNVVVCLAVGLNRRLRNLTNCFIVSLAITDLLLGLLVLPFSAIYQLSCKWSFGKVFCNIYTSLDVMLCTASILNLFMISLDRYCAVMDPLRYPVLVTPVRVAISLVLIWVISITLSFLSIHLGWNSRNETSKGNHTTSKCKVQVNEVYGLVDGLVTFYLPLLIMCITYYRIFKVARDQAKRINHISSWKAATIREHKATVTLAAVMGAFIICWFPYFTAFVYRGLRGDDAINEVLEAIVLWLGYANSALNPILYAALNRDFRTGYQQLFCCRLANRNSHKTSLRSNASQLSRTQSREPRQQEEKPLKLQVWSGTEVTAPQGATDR
# [9] = target: Sigma intracellular receptor 2 (Homo sapiens, UniProt Q5BJF2); test: Displacement of [3H]-DTG from human sigma2 receptor expressed in HEK293T cell membranes after 90 mins by scintillation counting method
# [10] = target: Sodium-dependent dopamine transporter (Homo sapiens, UniProt Q01959); test: Displacement of [3H]-WIN35428 from human DAT after 90 mins by scintillation counting method
# Sodium-dependent dopamine transporter, sequence (Q01959 whole entry): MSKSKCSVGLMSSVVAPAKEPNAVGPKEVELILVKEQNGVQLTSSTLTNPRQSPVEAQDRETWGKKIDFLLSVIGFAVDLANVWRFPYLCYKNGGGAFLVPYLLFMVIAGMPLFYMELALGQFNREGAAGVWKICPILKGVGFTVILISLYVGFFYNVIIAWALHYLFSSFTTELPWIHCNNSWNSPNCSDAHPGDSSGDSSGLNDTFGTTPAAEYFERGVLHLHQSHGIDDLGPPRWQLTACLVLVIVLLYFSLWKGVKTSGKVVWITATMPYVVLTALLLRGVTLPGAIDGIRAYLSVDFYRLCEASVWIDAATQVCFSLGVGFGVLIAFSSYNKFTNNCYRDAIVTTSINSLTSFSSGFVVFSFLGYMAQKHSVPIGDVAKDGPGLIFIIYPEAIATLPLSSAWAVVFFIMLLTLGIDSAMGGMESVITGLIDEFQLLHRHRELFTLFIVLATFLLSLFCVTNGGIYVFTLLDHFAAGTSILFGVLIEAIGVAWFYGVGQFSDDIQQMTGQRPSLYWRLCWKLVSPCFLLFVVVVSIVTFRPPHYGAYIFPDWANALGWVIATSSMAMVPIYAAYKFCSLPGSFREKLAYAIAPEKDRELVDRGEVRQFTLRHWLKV
# P2Y purinoceptor 14 = target: T1, P2Y purinoceptor 14 (Homo sapiens, UniProt Q15391)
# T1 sequence (Q15391 whole entry): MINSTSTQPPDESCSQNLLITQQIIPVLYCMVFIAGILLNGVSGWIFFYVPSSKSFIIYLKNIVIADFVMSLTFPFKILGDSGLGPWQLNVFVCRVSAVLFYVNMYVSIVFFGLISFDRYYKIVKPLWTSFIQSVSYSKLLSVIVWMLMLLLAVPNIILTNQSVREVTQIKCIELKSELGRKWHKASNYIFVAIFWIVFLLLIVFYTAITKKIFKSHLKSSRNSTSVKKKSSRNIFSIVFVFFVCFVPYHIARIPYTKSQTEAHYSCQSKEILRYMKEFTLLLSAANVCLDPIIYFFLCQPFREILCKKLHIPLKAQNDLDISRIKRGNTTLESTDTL
# Description: Displacement of MRS4174 from human P2Y14R expressed in CHO cells preincubated for 30 mins followed by MRS4174 addition measured after 30 mins by flow cytometric method
# [11] = target: 5-hydroxytryptamine receptor 6 (Homo sapiens, UniProt P50406); test: Displacement of [3H]-LSD from human 5-HT6 receptor expressed in HEK293 cell membranes after 90 mins by scintillation counting method
# 5-hydroxytryptamine receptor 6, sequence (P50406 whole entry): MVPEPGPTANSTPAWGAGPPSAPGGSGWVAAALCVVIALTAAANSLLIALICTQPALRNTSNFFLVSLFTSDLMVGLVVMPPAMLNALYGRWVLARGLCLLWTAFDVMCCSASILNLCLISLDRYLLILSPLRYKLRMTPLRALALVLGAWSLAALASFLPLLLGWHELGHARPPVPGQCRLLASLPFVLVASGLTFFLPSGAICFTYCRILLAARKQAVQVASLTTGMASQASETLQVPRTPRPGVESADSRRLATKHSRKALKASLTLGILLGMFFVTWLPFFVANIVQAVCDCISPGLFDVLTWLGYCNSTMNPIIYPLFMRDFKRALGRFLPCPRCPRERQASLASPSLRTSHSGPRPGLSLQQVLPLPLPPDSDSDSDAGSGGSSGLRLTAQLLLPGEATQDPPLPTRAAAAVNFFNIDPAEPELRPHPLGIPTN
# [12] = target: Beta-3 adrenergic receptor (Homo sapiens, UniProt P13945); test: Displacement of [3H]-CGP12177 from human adrenergic beta-3 receptor expressed in HEK Flp-In cell membranes after 90 mins by scintillation counting method
# [13] = target: Kappa-type opioid receptor (Homo sapiens, UniProt P41145); test: Displacement of [3H]-U69593 from human KOR expressed in HEK293 cell membranes after 90 mins by scintillation counting method
# Translocator protein = Translocator protein (Rattus norvegicus, UniProt P16257); test: Displacement of [3H]-PK11195 from rat brain TSPO after 90 mins by scintillation counting method
# [14] = target: Sodium-dependent serotonin transporter (Homo sapiens, UniProt P31645); test: Displacement of [3H]-Citalopram from human SERT expressed in HEK293 cell membranes after 90 mins by scintillation counting method
# Sodium-dependent serotonin transporter, sequence (P31645 whole entry): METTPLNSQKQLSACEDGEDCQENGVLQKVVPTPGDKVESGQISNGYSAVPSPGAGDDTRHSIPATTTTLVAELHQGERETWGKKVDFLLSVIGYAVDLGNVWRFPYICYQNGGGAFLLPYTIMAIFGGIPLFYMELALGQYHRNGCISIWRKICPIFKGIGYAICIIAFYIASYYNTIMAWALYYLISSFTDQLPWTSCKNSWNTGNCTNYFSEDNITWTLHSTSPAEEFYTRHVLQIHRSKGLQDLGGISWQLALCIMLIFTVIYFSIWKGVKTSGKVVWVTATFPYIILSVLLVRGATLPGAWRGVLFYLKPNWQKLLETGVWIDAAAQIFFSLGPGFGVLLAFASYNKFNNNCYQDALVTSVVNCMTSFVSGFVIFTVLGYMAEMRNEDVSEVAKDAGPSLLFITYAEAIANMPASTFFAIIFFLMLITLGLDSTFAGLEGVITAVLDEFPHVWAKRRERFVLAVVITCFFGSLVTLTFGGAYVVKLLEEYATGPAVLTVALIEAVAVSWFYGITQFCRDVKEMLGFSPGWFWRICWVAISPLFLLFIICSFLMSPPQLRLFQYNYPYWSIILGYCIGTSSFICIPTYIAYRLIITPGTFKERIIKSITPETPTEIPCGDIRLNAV
# [15] = target: Delta-type opioid receptor (Homo sapiens, UniProt P41143); test: Displacement of [3H]-DADLE from human delta opioid receptor expressed in HEK293 cells after 90 mins by scintillation counting method; type: cell-based
# Delta-type opioid receptor, sequence (P41143 whole entry): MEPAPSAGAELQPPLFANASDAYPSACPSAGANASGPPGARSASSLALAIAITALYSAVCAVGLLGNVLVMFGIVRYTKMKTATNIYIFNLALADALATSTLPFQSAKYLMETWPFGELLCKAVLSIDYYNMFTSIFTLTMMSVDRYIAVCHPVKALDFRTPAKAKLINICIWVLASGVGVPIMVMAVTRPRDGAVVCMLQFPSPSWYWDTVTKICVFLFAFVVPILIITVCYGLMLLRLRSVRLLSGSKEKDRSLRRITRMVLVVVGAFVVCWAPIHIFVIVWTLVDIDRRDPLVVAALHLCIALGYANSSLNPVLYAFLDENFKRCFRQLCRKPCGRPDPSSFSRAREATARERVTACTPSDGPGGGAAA
# Sodium-dependent noradrenaline transporter, sequence (P23975 whole entry): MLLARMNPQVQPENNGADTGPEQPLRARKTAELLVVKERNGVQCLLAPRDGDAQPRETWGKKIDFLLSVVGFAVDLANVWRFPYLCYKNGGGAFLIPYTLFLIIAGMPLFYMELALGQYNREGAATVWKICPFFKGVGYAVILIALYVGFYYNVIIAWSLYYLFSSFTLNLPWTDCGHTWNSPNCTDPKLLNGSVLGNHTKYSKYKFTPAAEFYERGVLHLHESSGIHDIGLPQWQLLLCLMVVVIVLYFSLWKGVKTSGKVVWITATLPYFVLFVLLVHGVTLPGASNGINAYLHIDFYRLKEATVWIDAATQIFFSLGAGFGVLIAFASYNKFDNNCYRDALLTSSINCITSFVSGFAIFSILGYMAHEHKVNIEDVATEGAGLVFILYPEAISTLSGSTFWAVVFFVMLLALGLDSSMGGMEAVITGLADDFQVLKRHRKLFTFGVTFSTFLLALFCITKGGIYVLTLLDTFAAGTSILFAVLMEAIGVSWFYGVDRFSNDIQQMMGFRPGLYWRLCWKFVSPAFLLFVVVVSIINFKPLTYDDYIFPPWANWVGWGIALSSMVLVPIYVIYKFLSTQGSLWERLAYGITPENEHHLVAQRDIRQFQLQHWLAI
# 5-hydroxytryptamine receptor 1A, sequence (P08908 whole entry): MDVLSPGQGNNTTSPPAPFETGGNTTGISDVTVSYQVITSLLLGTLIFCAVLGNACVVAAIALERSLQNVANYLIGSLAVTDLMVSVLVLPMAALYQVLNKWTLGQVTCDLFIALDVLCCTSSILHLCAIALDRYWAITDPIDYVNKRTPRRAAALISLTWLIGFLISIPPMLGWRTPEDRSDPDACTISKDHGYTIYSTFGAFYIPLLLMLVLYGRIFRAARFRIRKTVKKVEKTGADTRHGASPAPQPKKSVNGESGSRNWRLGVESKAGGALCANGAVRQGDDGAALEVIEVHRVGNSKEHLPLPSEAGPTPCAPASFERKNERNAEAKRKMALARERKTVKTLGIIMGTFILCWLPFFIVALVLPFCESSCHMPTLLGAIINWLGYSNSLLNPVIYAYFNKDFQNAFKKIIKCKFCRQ
compound,measurement,setting,value
NCCCCCCn1cc(CCCCN2CCC(c3ccc(-c4cc(C(=O)O)cc5cc(-c6ccc(C(F)(F)F)cc6)ccc45)cc3)CC2)nn1,Ki,[1],1870 nM
same,Ki,[2],5650 nM
same,Ki,[3],8400 nM
same,Ki,[4],1770 nM
same,Ki,[5],1110 nM
same,Ki,[6],1270 nM
same,Ki,[7],28 nM
same,Ki,[8],984 nM
same,Ki,D(1A) dopamine receptor,7600 nM
same,Ki,D(2) dopamine receptor,8210 nM
same,Ki,D(3) dopamine receptor,1600 nM
same,Ki,D(1B) dopamine receptor,1070 nM
same,Ki,Histamine H2 receptor,365 nM
same,Ki,[9],1200 nM
same,Ki,[10],1070 nM
same,IC50,P2Y purinoceptor 14,25.4 nM
CC(C)(C)OC(=O)N1CCN(Cc2ccc(-c3cc(C(=O)O)cc(-n4cc(-c5ccc(C(F)(F)F)cc5)nn4)c3)s2)CC1,IC50,P2Y purinoceptor 14,67200 nM
CC(C)(C)OC(=O)NCCCCCCn1cc(CCCCN2CCC(c3ccc(-c4cc(C(=O)O)cc5cc(-c6ccc(C(F)(F)F)cc6)ccc45)cc3)CC2)nn1,Ki,[7],5280 nM
same,Ki,Histamine H2 receptor,829 nM
same,Ki,[11],7900 nM
same,Ki,[12],2360 nM
same,Ki,[13],4060 nM
same,Ki,Translocator protein,5600 nM
same,Ki,[14],2080 nM
same,IC50,P2Y purinoceptor 14,133 nM
NC(=O)c1ccc(-c2cc(C(=O)O)cc(-n3cc(-c4ccc(C(F)(F)F)cc4)nn3)c2)cn1,IC50,P2Y purinoceptor 14,1410 nM
O=C(O)c1cc(Br)cc(-n2cc(-c3ccc(C(F)(F)F)cc3)nn2)c1,IC50,P2Y purinoceptor 14,26800 nM
NS(=O)(=O)c1ccc(-c2cc(C(=O)O)cc(-n3cc(-c4ccc(C(F)(F)F)cc4)nn3)c2)cc1,Ki,[15],3260 nM
same,IC50,P2Y purinoceptor 14,608 nM
NCCCNC(=O)c1csc(-c2cc(C(=O)O)cc(-n3cc(-c4ccc(C(F)(F)F)cc4)nn3)c2)c1,IC50,P2Y purinoceptor 14,735 nM
O=C(O)c1cc(-c2ccc(S(=O)(=O)N3CCNCC3)cc2)cc(-n2cc(-c3ccc(C(F)(F)F)cc3)nn2)c1,IC50,P2Y purinoceptor 14,1640 nM
NC(=O)c1cnc(-c2cc(C(=O)O)cc(-n3cc(-c4ccc(C(F)(F)F)cc4)nn3)c2)cn1,IC50,P2Y purinoceptor 14,566 nM
NCCCNC(=O)c1ccc(-c2cc(C(=O)O)cc(-n3cc(-c4ccc(C(F)(F)F)cc4)nn3)c2)o1,IC50,P2Y purinoceptor 14,10900 nM
NC(=O)c1ccc(-c2cc(-c3nnn[nH]3)cc(-n3cc(-c4ccc(C(F)(F)F)cc4)nn3)c2)cc1,IC50,P2Y purinoceptor 14,2430 nM
O=C(O)c1cc(O)cc(-n2cc(-c3ccc(C(F)(F)F)cc3)nn2)c1,IC50,P2Y purinoceptor 14,16400 nM
NC(=O)c1ccc(-c2cc(C(=O)O)cc(-n3cc(-c4ccc(C(F)(F)F)cc4)nn3)c2)o1,IC50,P2Y purinoceptor 14,3110 nM
O=C(O)c1cc(-c2ccc(CN3CCNCC3)s2)cc(-n2cc(-c3ccc(C(F)(F)F)cc3)nn2)c1,IC50,P2Y purinoceptor 14,1960 nM
CC(C)(C)OC(=O)N1CCN(C(=O)c2ccc(-c3cc(C(=O)O)cc(-n4cc(-c5ccc(C(F)(F)F)cc5)nn4)c3)s2)CC1,IC50,P2Y purinoceptor 14,53000 nM
O=C(O)c1cc(-c2ccc(C(=O)N3CCNCC3)s2)cc(-n2cc(-c3ccc(C(F)(F)F)cc3)nn2)c1,IC50,P2Y purinoceptor 14,12600 nM
O=C(O)c1cc(-c2ccc(S(=O)(=O)NCCCCO)s2)cc(-n2cc(-c3ccc(C(F)(F)F)cc3)nn2)c1,IC50,P2Y purinoceptor 14,8420 nM
CCNC(=O)c1ccc(-c2cc(C(=O)O)cc(-n3cc(-c4ccc(C(F)(F)F)cc4)nn3)c2)cc1,IC50,P2Y purinoceptor 14,899 nM
CC(C)(C)OC(=O)NCCCNC(=O)c1ccc(-c2cc(C(=O)O)cc(-n3cc(-c4ccc(C(F)(F)F)cc4)nn3)c2)s1,IC50,P2Y purinoceptor 14,2280 nM
O=C(O)c1cc(O)c2ccc(-c3ccc(C(F)(F)F)cc3)cc2c1,Ki,[1],5800 nM
CC(=O)NCCCCCCn1cc(CCCCN2CCC(c3ccc(-c4cc(C(=O)O)cc5cc(-c6ccc(C(F)(F)F)cc6)ccc45)cc3)CC2)nn1,IC50,P2Y purinoceptor 14,83.5 nM

# From ChEMBL document CHEMBL4184336, “Structure-Guided Modification of Heterocyclic Antagonists of the P2Y14 Receptor” (J Med Chem, 2018)
